Experimental data as given in article PMC10893631, “Receptor-based pharmacophore modeling, molecular docking, synthesis and biological evaluation of novel VEGFR-2, FGFR-1, and BRAF multi-kinase inhibitors” (BMC Chemistry, 2024).

What was measured:
Experiment in all cases: NCI SRB growth inhibition (single dose 10 µM / five-dose)
Assay type in all cases: cell-based, human
SK-MEL-2 = conditions: Homo sapiens; SK-MEL-2 (Melanoma), 10 µM; read-out: GI%
Protocol: (§1) Screening of cytotoxic activity against a panel of sixty human tumor cell lines The selected compounds by NCI were evaluated for their anticancer activity in a two- stage process. […] Then, the output from the single dose screen is reported as a mean graph. […] Assay protocol. […] For a typical screening experiment, cells are inoculated into 96 well microtiter plates in 100 µL at plating densities ranging from 5000 to 40,000 cells/well depending on the doubling time of individual cell lines. […] After 24 h, two plates of each cell line are fixed in situ with TCA, to represent a measurement of the cell population for each cell line at the time of drug addition (Tz). The experimental drugs are solubilized in dimethyl sulfoxide at 400-fold the desired final maximum test concentration and stored frozen prior to use. At the time of drug addition, an aliquot of frozen concentrate is thawed and diluted to twice the desired final maximum test concentration with complete medium containing 50 µg/mL gentamicin. Additional four, 10-fold or ½ log serial dilutions are made to provide a total of five drug concentrations plus control. Aliquots of 100 mL of these different drug dilutions are added to the appropriate microtiter wells already containing […] of medium, resulting in the required final drug concentrations. […] For adherent cells, the assay is terminated by the addition of cold TCA. […] The supernatant is discarded, and the plates are washed five times with tap water and air dried. Sulforhodamine B (SRB) solution ([…]) at 0.4% (w/v) in 1% acetic acid is added to each well, and plates are incubated for 10 min at room temperature. After staining, unbound dye is removed by washing five times with 1% acetic acid and the plates are air dried. […] Using the seven absorbance measurements [time zero, (Tz), control growth, (C), and test growth in the presence of drug at the five concentration levels (Ti)], the percentage growth is calculated at each of the drug concentrations levels. Percentage growth inhibition is calculated as: [(Ti Tz)/(C–Tz)] x 100 for concentrations for which Ti>/=Tz and [(Ti-Tz)/Tz] x 100 for concentrations for which Ti < Tz. Three dose response parameters are calculated for each experimental agent. […] The drug concentration resulting in total growth inhibition (TGI) is calculated from Ti = Tz. […] Values are calculated for each of these three parameters if the level of activity is reached; however, if the effect is not reached or is exceeded, the value for that parameter is expressed as greater or less than the maximum or minimum concentration tested.

MDA-MB-231/ATCC = conditions: Homo sapiens; MDA-MB-231/ATCC (Breast cancer), 10 µM; read-out: GI%
Protocol: as §1

RPMI-8226 = conditions: Homo sapiens; RPMI-8226 (Leukemia), 10 µM; read-out: GI%
Protocol: as §1

BT-549 = conditions: Homo sapiens; BT-549 (Breast cancer), 10 µM; read-out: GI%
Protocol: as §1

NCI/ADR-RES = conditions: Homo sapiens; NCI/ADR-RES (Ovarian cancer), 10 µM; read-out: GI%
Protocol: as §1

SR = conditions: Homo sapiens; SR (Leukemia), 10 µM; read-out: GI%
Protocol: as §1

K-562 = conditions: Homo sapiens, K562; K-562 (Leukemia), 10 µM; read-out: GI%
Protocol: as §1

ACHN = conditions: Homo sapiens; ACHN (Renal cancer), 10 µM; read-out: GI%
Protocol: as §1

UACC-257 = conditions: Homo sapiens; UACC-257 (Melanoma), 10 µM; read-out: GI%
Protocol: as §1

SN12C = conditions: Homo sapiens; SN12C (Renal cancer), 10 µM; read-out: GI%
Protocol: as §1

MDA-MB-468 = conditions: Homo sapiens; MDA-MB-468 (Breast cancer), 10 µM; read-out: GI%
Protocol: as §1

KM12 = conditions: Homo sapiens; KM12 (Colon cancer), 10 µM; read-out: GI%
Protocol: as §1

SK-MEL-5 = conditions: Homo sapiens; SK-MEL-5 (Melanoma), 10 µM; read-out: GI%
Protocol: as §1

786–0 = conditions: Homo sapiens; 786–0 (Renal cancer), 10 µM; read-out: GI%
Protocol: as §1

NCI-H522 = conditions: Homo sapiens; NCI-H522 (Non-small cell lung cancer), 10 µM; read-out: GI%
Protocol: as §1

EKVX = conditions: Homo sapiens; EKVX (Non-small cell lung cancer), 10 µM; read-out: GI%
Protocol: as §1

SNB-19 = conditions: Homo sapiens; SNB-19 (CNS cancer), 10 µM; read-out: GI%
Protocol: as §1

HT29 = conditions: Homo sapiens, HT-29; HT29 (Colon cancer), 10 µM; read-out: GI%
Protocol: as §1

IGROV1 = conditions: Homo sapiens, IGROV-1; IGROV1 (Ovarian cancer), 10 µM; read-out: GI%
Protocol: as §1

SNB-75 = conditions: Homo sapiens; SNB-75 (CNS cancer), 10 µM; read-out: GI%
Protocol: as §1

TK-10 = conditions: Homo sapiens; TK-10 (Renal cancer), 10 µM; read-out: GI%
Protocol: as §1

NCI-H226 = conditions: Homo sapiens; NCI-H226 (Non-small cell lung cancer), 10 µM; read-out: GI%
Protocol: as §1

SF-268 = conditions: Homo sapiens; SF-268 (CNS cancer), 10 µM; read-out: GI%
Protocol: as §1

NCI-H23 = conditions: Homo sapiens; NCI-H23 (Non-small cell lung cancer), 10 µM; read-out: GI%
Protocol: as §1

COLO 205 = conditions: Homo sapiens; COLO 205 (Colon cancer), 10 µM; read-out: GI%
Protocol: as §1

HOP-62 = conditions: Homo sapiens; HOP-62 (Non-small cell lung cancer), 10 µM; read-out: GI%
Protocol: as §1

Compound | inhibition at 10 µM (SK-MEL-2) | inhibition at 10 µM (MDA-MB-231/ATCC) | inhibition at 10 µM (RPMI-8226) | inhibition at 10 µM (BT-549) | inhibition at 10 µM (NCI/ADR-RES) | inhibition at 10 µM (SR) | inhibition at 10 µM (K-562) | inhibition at 10 µM (ACHN) | inhibition at 10 µM (UACC-257) | inhibition at 10 µM (MDA-MB-468) | inhibition at 10 µM (KM12) | inhibition at 10 µM (SK-MEL-5) | inhibition at 10 µM (786–0) | inhibition at 10 µM (NCI-H522) | inhibition at 10 µM (EKVX) | inhibition at 10 µM (SNB-19) | inhibition at 10 µM (HT29) | inhibition at 10 µM (IGROV1) | inhibition at 10 µM (SNB-75) | inhibition at 10 µM (TK-10) | also measured
COc1ccc(OC)c(C=NNC(=O)c2ccc3[nH]c(-c4ccccc4)nc3c2)c1 [8f, N'-(2,5-Dimethoxybenzylidene)-2-phenyl-1H-benzo[d]imidazole-5-carbohydrazide] | 16.7% | 38% | 81.3% | 38.2% | 24.5% | 36.3% | 63% | 36.5% | < 5% | 24.7% | 30.5% | 67.8% | 18.6% | 37.8% | 22.7% | 21.4% | 14.7% | 11% | < 5% | 19% | inhibition at 10 µM (SN12C): 35.2%; inhibition at 10 µM (NCI-H226): 49.5%; inhibition at 10 µM (SF-268): 36.6%; inhibition at 10 µM (NCI-H23): 46.7%
COc1ccc(-c2nc3cc(C(=O)NN=Cc4cccc(O)c4)ccc3[nH]2)cc1 [8i, N'-(3-Hydroxybenzylidene)-2-(4-methoxyphenyl)-1H-benzo[d]imidazole-5-carbohydrazide] | 37.5% | 22.4% | 24.8% | 32.7% | < 5% | 81.9% | 60.6% | < 5% | 47.4% | 54.6% | 38.7% | 40.5% | 23.4% | 43.4% | 23.4% | 15.8% | 74.5% | 11.2% | 17.8% | < 5% | inhibition at 10 µM (COLO 205): 32.4%; inhibition at 10 µM (HOP-62): 42%; inhibition at 10 µM (NCI-H226): 7.75%; inhibition at 10 µM (SF-268): 37.4%; inhibition at 10 µM (NCI-H23): 6.56%
COc1ccc(-c2nc3cc(C(=O)NN=Cc4cc(OC)ccc4OC)ccc3[nH]2)cc1 [8m, N'-(2,5-Dimethoxybenzylidene)-2-(4-methoxyphenyl)-1H-benzo[d]imidazole-5-carbohydrazide] | 11.1% | 14.3% | 76.8% | 17.2% | < 5% | 28.5% | 22.8% | 8.59% | 14.3% | 16.2% | 11.7% | 22.3% | 29% | 21.3% | 10.6% | < 5% | 25.4% | < 5% | < 5% | < 5% | inhibition at 10 µM (COLO 205): < 5%; inhibition at 10 µM (HOP-62): 19.4%; inhibition at 10 µM (NCI-H226): < 5%; inhibition at 10 µM (SF-268): 9.02%; inhibition at 10 µM (NCI-H23): < 5%
COc1ccc(OC)c(C=NNC(=O)c2ccc3[nH]c(-c4ccc(Cl)cc4)nc3c2)c1 [8t, 2-(4-Chlorophenyl)-N'-(2,5-dimethoxybenzylidene)-1H-benzo[d]imidazole-5-carbohydrazide] | < 5% | 89.7% | 62.2% | 25.7% | 11.2% | 31.4% | 52.9% | 53.1% | < 5% | 30.4% | 23.3% | 68.8% | 26.6% | 40.9% | 42.5% | 45.7% | 20.3% | 7.82% | 27.2% | 10.9% | inhibition at 10 µM (COLO 205): 18.3%; inhibition at 10 µM (HOP-62): 18.4%; inhibition at 10 µM (NCI-H226): 35.7%; inhibition at 10 µM (SF-268): 43%; inhibition at 10 µM (NCI-H23): 33.9%
